For one data set, the system named is LoVo cells. Kind of data set: CCK-8 cell proliferation assay, LoVo. The class given is cell-based. To be noted: Homo sapiens, CCK-8, 72 h, ATM-deficient cell line, three independent experiments, read-out: IC50 ± SD, LoVo. The protocol:
(§1) A549, HCT116, NCI-H23, and LoVo cells were purchased from the Cell Resources Center of Shanghai Academy of Life Sciences, Shanghai, China. A549 cells were cultured in McCoy’s5A medium supplemented with 10% FBS (KeyGEN Biotech, Nanjing, China) and 1% penicillin/streptomycin (Gibco, 15070-063). HCT116 cells were cultured in IMDM medium supplemented with 10% FBS (KeyGEN Biotech, Nanjing, China) and 1% penicillin/streptomycin (Gibco, 15070-063). NCI-H23 cells were cultured in RPMI 1640 medium supplemented with 10% FBS (KeyGEN Biotech, Nanjing, China) and 1% penicillin/streptomycin (Gibco, 15070-063). LoVo cells were cultured in F12K medium supplemented with 10% FBS (KeyGEN Biotech, Nanjing, China) and 1% penicillin/streptomycin (Gibco, 15070-063). All cells were cultured in an incubator at 37 °C under a 5% CO2 atmosphere.
(§2) For the assay, 3000/well cells were planted into 96-well plates for 24 h and then treated with the indicated doses of drugs or controls for 72 h. Following the manufacturer’s instructions, cell proliferation/survival was measured using the CCK-8 (KeyGEN Biotech, Nanjing, China) assay and plotted via GraphPad 8.0.

The test system of another data set is A549 cells. Briefly: CCK-8 cell proliferation assay, A549. The format is cell-based. The note with it: Homo sapiens, CCK-8, 72 h, ATM-normal cell line, three independent experiments, read-out: IC50 ± SD, A549. The protocol:
as §1, §2

For the next data set, the system named is NCI-H23 cells. Kind of data set: CCK-8 cell proliferation assay, NCI-H23. The format is cell-based. The note with it: Homo sapiens, CCK-8, 72 h, ATM-deficient cell line, three independent experiments, read-out: IC50 ± SD, NCI-H23. As for the experimental part:
as §1, §2

For another data set, the system named is LoVo xenografts. Briefly: LoVo tumor xenograft mouse model, antitumor efficacy and tolerability. The class given is in vivo. As for the experimental part: Balb/c nude mice (18–22 g, female, 4 weeks old) were purchased from Hangzhou Medical College (Hangzhou, China). All mice were inoculated subcutaneously in the right flank with 5 × 10^6 LoVo cells to initiate tumor growth. When the mean tumor volume reached approximately 100 mm^3, all mice were randomly divided into 8 groups (n = 5 per group) based on body weight and volume. […] Cisplatin was administered twice a week at the indicated doses. Tumor size and animal weight were measured every 3 days. Tumor volume was calculated as tumor volume (cm^3) = (length × width^2)/2. Tumor inhibition rate (%) = (1 − mean tumor weight in the treatment group/mean tumor weight in the control group) × 100%. The results were obtained from 5 test mice (mean ± SD) and calculated using GraphPad 8.0 software.

A further data set has as its system HCT116 cells. Briefly: CCK-8 cell proliferation assay, HCT116. The note with it: Homo sapiens, HCT-116; CCK-8, 72 h, ATM-normal cell line, three independent experiments; read-out: IC50 ± SD, HCT116. The class given is cell-based. The protocol: as §1, §2
In a further data set the target is ATR (Homo sapiens, UniProt Q13535). Briefly: In vitro inhibitory activity against the ATR enzyme. The class given is biochemical. To be noted: mean ± SD of two independent experiments; read-out: ATR IC50 ± SD.

The record followed here is paper PMC10254649, “Design, Synthesis, and Biological Evaluation of Potent and Selective Inhibitors of Ataxia Telangiectasia Mutated and Rad3-Related (ATR) Kinase for the Efficient Treatment of Cancer” (Molecules, 2023).

“And” between values parts separate entries of the source, which are not always exact repeats. Equal entries are not always repeated.

Sequence of ATR (Q13535 whole entry): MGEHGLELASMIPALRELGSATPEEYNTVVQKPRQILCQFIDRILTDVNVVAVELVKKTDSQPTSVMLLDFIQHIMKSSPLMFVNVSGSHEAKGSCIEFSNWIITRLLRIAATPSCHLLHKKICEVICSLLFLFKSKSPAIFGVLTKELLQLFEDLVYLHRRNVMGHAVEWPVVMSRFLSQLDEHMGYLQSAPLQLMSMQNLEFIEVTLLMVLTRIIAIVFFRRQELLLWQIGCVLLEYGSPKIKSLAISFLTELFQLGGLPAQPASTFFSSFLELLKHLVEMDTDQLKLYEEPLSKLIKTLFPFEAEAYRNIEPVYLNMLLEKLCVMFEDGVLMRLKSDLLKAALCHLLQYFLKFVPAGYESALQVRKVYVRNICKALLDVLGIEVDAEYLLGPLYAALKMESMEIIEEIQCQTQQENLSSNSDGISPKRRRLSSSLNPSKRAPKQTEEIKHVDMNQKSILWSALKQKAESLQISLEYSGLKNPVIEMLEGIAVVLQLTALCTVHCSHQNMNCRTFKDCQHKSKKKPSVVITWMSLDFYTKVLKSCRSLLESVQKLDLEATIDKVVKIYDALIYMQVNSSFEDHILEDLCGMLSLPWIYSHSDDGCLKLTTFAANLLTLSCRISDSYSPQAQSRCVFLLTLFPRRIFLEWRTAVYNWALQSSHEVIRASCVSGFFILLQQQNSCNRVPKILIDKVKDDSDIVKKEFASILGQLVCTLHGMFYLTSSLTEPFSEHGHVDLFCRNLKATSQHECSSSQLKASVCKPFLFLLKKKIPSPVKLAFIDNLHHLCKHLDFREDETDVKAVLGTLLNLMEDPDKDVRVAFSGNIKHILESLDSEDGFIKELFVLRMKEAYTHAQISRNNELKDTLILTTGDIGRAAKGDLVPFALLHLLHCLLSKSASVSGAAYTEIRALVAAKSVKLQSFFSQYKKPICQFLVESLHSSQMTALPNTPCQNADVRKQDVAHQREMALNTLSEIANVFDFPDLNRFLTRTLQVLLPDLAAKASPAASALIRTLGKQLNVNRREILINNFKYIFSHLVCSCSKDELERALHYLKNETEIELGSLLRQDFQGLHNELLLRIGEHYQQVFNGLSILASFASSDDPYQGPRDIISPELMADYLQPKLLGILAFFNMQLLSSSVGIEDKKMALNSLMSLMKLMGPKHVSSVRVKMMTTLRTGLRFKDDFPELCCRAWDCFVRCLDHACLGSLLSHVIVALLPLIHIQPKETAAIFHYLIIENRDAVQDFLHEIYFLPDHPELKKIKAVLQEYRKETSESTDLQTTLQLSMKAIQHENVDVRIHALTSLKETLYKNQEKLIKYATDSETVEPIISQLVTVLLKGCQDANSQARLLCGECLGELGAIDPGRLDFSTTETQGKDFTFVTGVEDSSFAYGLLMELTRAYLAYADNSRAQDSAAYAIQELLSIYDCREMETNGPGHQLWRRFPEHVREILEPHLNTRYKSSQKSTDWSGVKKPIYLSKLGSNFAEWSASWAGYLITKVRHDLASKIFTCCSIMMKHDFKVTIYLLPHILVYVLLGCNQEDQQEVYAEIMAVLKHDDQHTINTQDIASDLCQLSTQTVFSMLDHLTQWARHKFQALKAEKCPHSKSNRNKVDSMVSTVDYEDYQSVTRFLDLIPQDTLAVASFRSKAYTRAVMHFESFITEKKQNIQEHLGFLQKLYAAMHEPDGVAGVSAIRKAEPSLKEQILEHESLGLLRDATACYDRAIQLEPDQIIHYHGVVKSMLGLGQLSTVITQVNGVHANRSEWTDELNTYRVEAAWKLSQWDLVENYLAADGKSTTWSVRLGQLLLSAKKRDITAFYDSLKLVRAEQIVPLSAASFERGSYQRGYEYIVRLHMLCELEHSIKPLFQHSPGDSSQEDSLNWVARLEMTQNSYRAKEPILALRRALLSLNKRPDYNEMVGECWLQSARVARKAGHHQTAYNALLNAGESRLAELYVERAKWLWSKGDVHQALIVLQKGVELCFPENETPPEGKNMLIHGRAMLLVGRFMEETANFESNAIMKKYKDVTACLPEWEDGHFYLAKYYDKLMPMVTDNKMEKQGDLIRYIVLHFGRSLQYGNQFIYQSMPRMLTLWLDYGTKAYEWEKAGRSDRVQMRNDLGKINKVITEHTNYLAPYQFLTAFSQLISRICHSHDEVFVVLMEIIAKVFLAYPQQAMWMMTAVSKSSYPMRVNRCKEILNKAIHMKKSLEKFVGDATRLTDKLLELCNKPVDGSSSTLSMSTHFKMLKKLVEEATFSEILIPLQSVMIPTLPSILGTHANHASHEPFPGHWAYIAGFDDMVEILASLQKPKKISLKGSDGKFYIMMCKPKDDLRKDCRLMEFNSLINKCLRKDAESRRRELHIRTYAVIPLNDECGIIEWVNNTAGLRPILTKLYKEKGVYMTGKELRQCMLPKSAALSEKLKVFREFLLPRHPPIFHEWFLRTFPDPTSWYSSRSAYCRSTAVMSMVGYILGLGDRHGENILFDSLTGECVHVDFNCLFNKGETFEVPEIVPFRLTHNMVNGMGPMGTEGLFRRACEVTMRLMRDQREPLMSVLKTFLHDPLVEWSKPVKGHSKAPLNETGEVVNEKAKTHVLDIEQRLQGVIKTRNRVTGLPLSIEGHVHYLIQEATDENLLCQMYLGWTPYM
Sequence of ATR (Q8WXE1 whole entry partner): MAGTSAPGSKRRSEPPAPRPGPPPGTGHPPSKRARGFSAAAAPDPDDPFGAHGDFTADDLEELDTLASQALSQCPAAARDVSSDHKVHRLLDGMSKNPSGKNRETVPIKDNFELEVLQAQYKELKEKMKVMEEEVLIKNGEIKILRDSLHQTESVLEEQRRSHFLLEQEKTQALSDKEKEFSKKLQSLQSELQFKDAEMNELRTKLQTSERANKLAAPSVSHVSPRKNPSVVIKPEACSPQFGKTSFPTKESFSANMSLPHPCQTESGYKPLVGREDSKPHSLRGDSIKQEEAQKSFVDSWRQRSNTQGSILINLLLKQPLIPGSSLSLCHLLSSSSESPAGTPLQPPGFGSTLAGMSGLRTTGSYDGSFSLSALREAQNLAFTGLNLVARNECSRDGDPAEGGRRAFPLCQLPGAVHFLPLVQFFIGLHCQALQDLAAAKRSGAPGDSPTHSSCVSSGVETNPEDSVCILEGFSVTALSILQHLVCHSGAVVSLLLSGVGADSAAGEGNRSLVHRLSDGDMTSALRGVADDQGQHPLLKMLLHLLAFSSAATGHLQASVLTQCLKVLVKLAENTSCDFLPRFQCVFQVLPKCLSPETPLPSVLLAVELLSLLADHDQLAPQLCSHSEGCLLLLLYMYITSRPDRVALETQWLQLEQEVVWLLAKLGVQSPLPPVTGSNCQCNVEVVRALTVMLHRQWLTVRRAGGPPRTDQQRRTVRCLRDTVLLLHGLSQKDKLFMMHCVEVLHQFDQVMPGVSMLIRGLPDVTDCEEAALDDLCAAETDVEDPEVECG

`C[C@@H]1COCCN1c1cc(C2([S@](C)(=N)=O)CC2)nc(-c2cc[nH]c3nccc2-3)n1` [AZD6738, ceralasertib, reference compound]: the IC50 turned out to be 410 ± 10 nM in the data set on LoVo cells, 6600 ± 240 nM in the data set on A549 cells, 500 ± 60 nM in the data set with NCI-H23 cells and 4320 ± 160 nM in the data set on HCT116 cells. The “tumor growth inhibition (TGI)” value with LoVo xenografts (25 mg/kg twice daily, days 1-18, single agent, AZD6738 orally, ZH-12 intraperitoneally) is 42.5%.
On to `CCS(=O)(=O)N1CCc2c(nc(-c3ccnc4[nH]ccc34)nc2N2CCOC[C@H]2C)C1` [ZH-1, (R)-4-(7-(ethylsulfonyl)-2-(1H-pyrrolo[2,3-b]pyridin-4-yl)-5,6,7,8-tetrahydropyrido[3,4-d]pyrimidin-4-yl)-3-methylmorpholine], for which the 50% inhibitory concentration (IC50) at ATR came to 53.3 ± 1.08 nM.
Still for that read-out and setting: under `CCC(=O)N1CCc2c(nc(-c3ccnc4[nH]ccc34)nc2N2CCOC[C@H]2C)C1` [ZH-2, (R)-1-(4-(3-methylmorpholino)-2-(1H-pyrrolo[2,3-b]pyridin-4-yl)-5,8-dihydropyrido[3,4-d]pyrimidin-7(6H)-yl)propan-1-one] stands 41.6 ± 1.38 nM; under `CCCC(=O)N1CCc2c(nc(-c3ccnc4[nH]ccc34)nc2N2CCOC[C@H]2C)C1` [ZH-3, (R)-1-(4-(3-methylmorpholino)-2-(1H-pyrrolo[2,3-b]pyridin-4-yl)-5,8-dihydropyrido[3,4-d]pyrimidin-7(6H)-yl)butan-1-one], 42.5 ± 1.05 nM.
On to `CC(C)CC(=O)N1CCc2c(nc(-c3ccnc4[nH]ccc34)nc2N2CCOC[C@H]2C)C1` [ZH-4, (R)-3-methyl-1-(4-(3-methylmorpholino)-2-(1H-pyrrolo[2,3-b]pyridin-4-yl)-5,8-dihydropyrido[3,4-d]pyrimidin-7(6H)-yl)butan-1-one], for which the IC50 in the data set on LoVo cells came out at 18000 ± 1690 nM; with A549 cells, 20800 ± 1210 nM; with NCI-H23 cells, 1740 ± 50 nM; on ATR, 7.31 ± 0.16 nM; with HCT116 cells it was 5170 ± 580 nM.
Turning to `C[C@@H]1COCCN1c1nc(-c2ccnc3[nH]ccc23)nc2c1CCN(C(=O)CC#N)C2` [ZH-5, (R)-3-(4-(3-methylmorpholino)-2-(1H-pyrrolo[2,3-b]pyridinedin-4-yl)-5,8-dihydropyrido[3,4-d]pyrimidin-7(6H)-yl)-3-oxopropanenitrile], the melting point was above 250 °C. In addition, the IC50 at ATR was 11.3 nM and 10.8 nM.
In turn, `C[C@@H]1COCCN1c1nc(-c2ccnc3[nH]ccc23)nc2c1CCN(C(=O)CO)C2` [ZH-6, (R)-2-hydroxy-1-(4-(3-methylmorpholino)-2-(1H-pyrrolo[2,3-b]pyridinedin-4-yl)-5,8-dihydropyrido[3,4-d]pyrimidin-7(6H)-yl)ethan-1-one] gave a melting point of 174 to 176 °C. Besides, the half-inhibitory concentration (IC50) on ATR is 34.03 ± 0.27 nM.
`COCC(=O)N1CCc2c(nc(-c3ccnc4[nH]ccc34)nc2N2CCOC[C@H]2C)C1` [ZH-7, (R)-2-methoxy-1-(4-(3-methylmorpholino)-2-(1H-pyrrolo[2,3-b]pyridinedin-4-yl)-5,8-dihydropyrido[3,4-d]pyrimidin-7(6H)-yl)ethan-1-one] displayed a melting point of 294 to 296 °C. Moreover, in the data set with LoVo cells, the concentration for half-maximal inhibition (IC50) was 5710 ± 810 nM. For the same compound, the 50% inhibitory concentration (IC50) in the data set on A549 cells was determined as 25600 ± 1620 nM. The IC50 with NCI-H23 cells was found to be 6770 ± 430 nM. For the same compound, the IC50 on ATR stood at 9.23 ± 0.16 nM. In addition, the half-inhibitory concentration (IC50) with HCT116 cells came to 6020 ± 260 nM.
Consider `C[C@@H]1COCCN1c1nc(-c2ccnc3[nH]ccc23)nc2c1CCN(C(=O)C1CCOCC1)C2` [ZH-8, (R)-(4-(3-methylmorpholino)-2-(1H-pyrrolo[2,3-b]pyridin-4-yl)-5,8-dihydropyrido[3,4-d]pyrimidin-7(6H)-yl)(tetrahydro-2H-pyran-4-yl)methanone], for which the IC50 at ATR is 27.5 ± 1.04 nM.
For `C[C@@H]1COCCN1c1nc(-c2ccnc3[nH]ccc23)nc2c1CCN(C(=O)C1CC(=O)C1)C2` [ZH-9, (R)-3-(4-(3-methylmorpholino)-2-(1H-pyrrolo[2,3-b]pyridinedin-4-yl)-5,6,7,8-tetrahydropyrido[3,4-d]pyrimidine-7-carbonyl)cyclobutan-1-one], the melting point is 222 to 224 °C. For the same compound, at ATR, the IC50 came out at 16 ± 1.08 nM.
For the compound `C[C@@H]1COCCN1c1nc(-c2ccnc3[nH]ccc23)nc2c1CCN(C(=O)C1CCC(=O)CC1)C2` [ZH-10, (R)-4-(4-(3-methylmorpholino)-2-(1H-pyrrolo[2,3-b]pyridinedin-4-yl)-5,6,7,8-tetrahydropyrido[3,4-d]pyrimidine-7-carbonyl)cyclohexan-1-one], the melting point lay in the range of 240 to 242 °C. Moreover, on ATR, the half-maximal inhibitory concentration (IC50) is 27.5 nM and 11.9 nM.
With `CCNC(=O)N1CCc2c(nc(-c3ccnc4[nH]ccc34)nc2N2CCOC[C@H]2C)C1` [ZH-11, (R)-N-ethyl-4-(3-methylmorpholino)-2-(1H-pyrrolo[2,3-b]pyridin-4-yl)-5,8-dihydropyrido[3,4-d]pyrimidine-7(6H)-carboxamide], the IC50 at ATR was 11.4 ± 0.25 nM.
For `C[C@@H]1COCCN1c1nc(-c2cccc3[nH]ccc23)nc2c1CCN(C(=O)C1CCOCC1)C2` [ZH-13, (R)-(2-(1H-indol-4-yl)-4-(3-methylmorpholino)-5,8-dihydropyrido[3,4-d]pyrimidin-7(6H)-yl)(tetrahydro-2H-pyran-4-yl)methanone], on ATR, the half-maximal inhibitory concentration (IC50) worked out at 214.66 ± 0.04 nM.
Take `CCNC(=O)N1CCc2c(nc(-c3cccc4[nH]ccc34)nc2N2CCOC[C@H]2C)C1` [ZH-14, (R)-N-ethyl-2-(1H-indol-4-yl)-4-(3-methylmorpholino)-5,8-dihydropyrido[3,4-d]pyrimidine-7(6H)-carboxamide]: the IC50 on ATR was found to be 14.9 ± 0.29 nM.
For `N.N.[Cl][Pt][Cl]` [cisplatin, reference compound], the “tumor growth inhibition (TGI)” value with LoVo xenografts (cisplatin 6 mg/kg twice a week, alone) was found to be 26.1%.
